{"source": "patent US20210400967A1", "about": "“COMPOSITIONS COMPRISING PYRIDINE CARBOXYLATE HERBICIDES WITH GLYPHOSATE OR GLUFOSINATE” (Corteva Agriscience LLC, priority 2018, published 2021)", "type_in_all_cases": "in vivo", "key": {"[1]": {"test_system": "Brassica napus (winter rape)", "experiment": "Greenhouse postemergence herbicidal effect, winter rape (BRSNW)", "details": "20-22 d", "source_text": "(§1) Greenhouse Trial Methodology—Evaluation of Postemergence Herbicidal Effect\n(§2) Seeds of the desired test plant species were planted in a 90:10% v/v (volume/volume) mixture of PRO-MIX® BX (Premier Tech Horticulture, Quakertown, Pa., USA) and PROFILE® GREENS GRADE™ (Profile Products LLC, Buffalo Grove, Ill., USA) planting mixture, which typically has a pH of 5.2 to 6.2 and an organic matter content of at least 50 percent, in plastic pots with a surface area of 103.2 square centimeters (cm^2). In some aspects, to ensure good germination and healthy plants, a fungicide treatment and/or other chemical or physical treatment was applied. The plants were grown for 7-36 days (d) in a greenhouse with an approximate 14-hour (h) photo-period which was maintained at about 23° C. during the day and 22° C. during the night. Nutrients and water were added on a regular basis and supplemental lighting was provided with overhead metal halide 1000-Watt lamps as necessary. The plants were employed for testing when they reached the second or third true leaf stage.\n(§3) Emulsifiable concentrates of each of each pyridine carboxylate herbicide (Compound A or Compound B) were prepared at 100 grams acid equivalent per liter (g ae/L). The emulsifiable concentrates also included a safener, cloquintocet-mexyl, at 120 grams active ingredient per liter (g ai/L). An aliquot of each emulsifiable concentrate was placed in a 25 mL glass vial and diluted with an aqueous mixture of 1.25% (v/v) ACTIROB® B esterified rapeseed oil (Bayer Crop Science, Research Triangle Park, N.C., USA) or MSO® Concentrate with LECI-TECH® methylated soybean oil (Loveland Products, Loveland, Colo., USA) to obtain concentrated stock solutions at the highest application rate for each herbicide, based upon a 12 milliliter (mL) application volume at a rate of 187 liters per hectare (L/ha). The concentrated stock solutions were further diluted with an aqueous mixture of 1.25% v/v ACTIROB® B or MSO® Concentrate with LECI-TECH® to obtain stock solutions at reduced application rates for each herbicide. Spray solutions of the herbicide combinations (Compound A or Compound B plus glyphosate or glufosinate) were prepared by adding weighed amounts or aliquots of the glyphosate or glufosinate to the stock solutions of Compound A or Compound B to form 12-mL spray solutions in two-way combinations.\n(§4) The spray solutions were applied to the plant material with an overhead Mandel track sprayer equipped with 8002E nozzles calibrated to deliver 187 L/ha over an application area of 0.503 square meters (m^2) at a spray height of 18 inches (43 centimeters (cm)) above the average plant canopy. Control plants were sprayed in the same manner with the solvent blank. All pyridine carboxylate herbicide (component a) application rates are given as “g ae/ha” and all glyphosate or glufosinate (component b) application rates are given as “g ai/ha.”\n(§5) The treated plants and control plants were placed in a greenhouse as described above and watered by sub-irrigation to prevent wash-off of the test compounds. After 20-22 d, the condition of the test plants as compared with that of the control plants was determined visually and scored on a scale of 0 to 100 percent where 0 corresponds to no injury and 100 corresponds to complete kill."}, "[2]": {"test_system": "Polygonum convolvulus (wild buckwheat)", "experiment": "Greenhouse postemergence herbicidal effect, wild buckwheat (POLCO)", "details": "20-22 d", "source_text": "as §1, §2, §3, §4, §5"}, "[3]": {"test_system": "Sinapis arvensis (wild mustard)", "experiment": "Greenhouse postemergence herbicidal effect, wild mustard (SINAR)", "details": "20-22 d", "source_text": "as §1, §2, §3, §4, §5"}, "[4]": {"test_system": "Salsola kali (Russian thistle)", "experiment": "Greenhouse postemergence herbicidal effect, Russian thistle (SASKR)", "details": "20-22 d", "source_text": "as §1, §2, §3, §4, §5"}, "Kochia scoparia (kochia)": {"test_system": "Kochia scoparia (kochia)", "experiment": "Greenhouse postemergence herbicidal effect, kochia (KCHSC)", "details": "20-22 d", "source_text": "as §1, §2, §3, §4, §5"}, "[5]": {"test_system": "Chenopodium album L. (common lambsquarters)", "experiment": "Greenhouse postemergence herbicidal effect, common lambsquarters (CHEAL)", "details": "20-22 d", "source_text": "as §1, §2, §3, §4, §5"}, "[6]": {"test_system": "Amaranthus retroflexus (pigweed)", "experiment": "Greenhouse postemergence herbicidal effect, pigweed (AMARE)", "details": "20-22 d", "source_text": "as §1, §2, §3, §4, §5"}, "[7]": {"test_system": "Matricaria chamomilla (wild chamomile)", "experiment": "Greenhouse postemergence herbicidal effect, wild chamomile (MATCH)", "details": "20-22 d", "source_text": "as §1, §2, §3, §4, §5"}, "[8]": {"test_system": "Cirsium arvense (Canadian thistle)", "experiment": "Greenhouse postemergence herbicidal effect, Canadian thistle (CIRAR)", "details": "20-22 d", "source_text": "as §1, §2, §3, §4, §5"}, "[9]": {"test_system": "Triticum aestivum (spring wheat)", "experiment": "Greenhouse postemergence phytotoxicity on crop, spring wheat (TRZAS)", "details": "20-22 d", "source_text": "as §1, §2, §3, §4, §5"}, "[10]": {"test_system": "Hordeum vulgare (spring barley)", "experiment": "Greenhouse postemergence phytotoxicity on crop, spring barley (HORVS)", "details": "20-22 d", "source_text": "as §1, §2, §3, §4, §5"}, "[11]": {"test_system": "Brassica napus (spring rape)", "experiment": "Greenhouse postemergence herbicidal effect, spring rape (BRSNN)", "details": "Example 3; Glyphosate 210 g ai/ha alone; 20-22 d", "source_text": "as §1, §2, §3, §4, §5"}, "[12]": {"test_system": "Setaria faberi (giant foxtail)", "experiment": "Greenhouse postemergence herbicidal effect, giant foxtail (SETFA)", "details": "Example 3; Glyphosate 210 g ai/ha alone; 20-22 d", "source_text": "as §1, §2, §3, §4, §5"}, "[13]": {"details": "Example 1, Glyphosate 210 g ai/ha alone"}, "[14]": {"details": "Example 2, Glyphosate 420 g ai/ha alone"}, "[15]": {"details": "Example 3, Glyphosate 210 g ai/ha alone"}}}
{"smiles": "O=C(O)CNCP(=O)(O)O", "note": "[Glyphosate, N-(phosphonomethyl)glycine]", "values": [{"measurement": "% visual injury", "setting": "[1]; [13]", "result": 68, "unit": "%"}, {"measurement": "% visual injury, Obs", "setting": "[1]; [14]", "result": 35, "unit": "%"}, {"measurement": "% visual injury", "setting": "[2]; [13]", "result": 65, "unit": "%"}, {"measurement": "% visual injury, Obs", "setting": "[2]; [14]", "result": 38, "unit": "%"}, {"measurement": "% visual injury, Obs", "setting": "[2]; [15]", "result": 20, "unit": "%"}, {"measurement": "% visual injury", "setting": "[3]; [13]", "result": 50, "unit": "%"}, {"measurement": "% visual injury, Obs", "setting": "[3]; [14]", "result": 30, "unit": "%"}, {"measurement": "% visual injury", "setting": "[4]; [13]", "result": 10, "unit": "%"}, {"measurement": "% visual injury, Obs", "setting": "[4]; [14]", "result": 53, "unit": "%"}, {"measurement": "% visual injury", "setting": "Kochia scoparia (kochia); [13]", "result": 0, "unit": "%"}, {"measurement": "% visual injury, Obs", "setting": "Kochia scoparia (kochia); [14]", "result": 38, "unit": "%"}, {"measurement": "% visual injury, Obs", "setting": "Kochia scoparia (kochia); [15]", "result": 3, "unit": "%"}, {"measurement": "% visual injury", "setting": "[5]; [13]", "result": 53, "unit": "%"}, {"measurement": "% visual injury, Obs", "setting": "[5]; [14]", "result": 75, "unit": "%"}, {"measurement": "% visual injury, Obs", "setting": "[5]; [15]", "result": 8, "unit": "%"}, {"measurement": "% visual injury", "setting": "[6]; [13]", "result": 100, "unit": "%"}, {"measurement": "% visual injury, Obs", "setting": "[6]; [14]", "result": 100, "unit": "%"}, {"measurement": "% visual injury", "setting": "[7]; [13]", "result": 60, "unit": "%"}, {"measurement": "% visual injury, Obs", "setting": "[7]; [14]", "result": 75, "unit": "%"}, {"measurement": "% visual injury", "setting": "[8]; [13]", "result": 38, "unit": "%"}, {"measurement": "% visual injury, Obs", "setting": "[8]; [14]", "result": 83, "unit": "%"}, {"measurement": "% visual injury, Obs", "setting": "[8]; [15]", "result": 40, "unit": "%"}, {"measurement": "% visual injury", "setting": "[9]; [13]", "result": 90, "unit": "%"}, {"measurement": "% visual injury, Obs", "setting": "[9]; [14]", "result": 90, "unit": "%"}, {"measurement": "% visual injury", "setting": "[10]; [13]", "result": 83, "unit": "%"}, {"measurement": "% visual injury, Obs", "setting": "[10]; [14]", "result": 80, "unit": "%"}, {"measurement": "% visual injury, Obs", "setting": "[11]", "result": 0, "unit": "%"}, {"measurement": "% visual injury, Obs", "setting": "[12]", "result": 30, "unit": "%"}]}
